Data published in patent US20060100173A1, “Ophthalmic solution” (priority 2004, published 2006).
Structures can show the parent of a compound that is named as a salt.

Tested on: five organisms
Test: Antimicrobial activity, sum of log drops of five organisms
Type: cell-based
Details: HA 1.7M relative to non-HA control and/or lower molecular weight HA compositions; Tris buffered

Row | Compound | reduction of the sum of the kill level by HA of MW 1.7M
1 | CCCCC(CC)CNC(=N)NC(=N)NCCCCCCNC(=N)NC(=N)NCC(CC)CCCC (centres unmarked) [ALX, Alexidine Dihydrochloride] | about 2 log
2 | poly[hexamethylene biguanide hydrochloride] [PHMB] | about 4 log
